Earlier results, collected in patent publication US20090017120A1, “Phase stable lecithin organogel composition” (Humco Holding Group, Inc., priority 2007, published 2009).

Conditions: 20% wt/vol pluronic gels, pH 7, 20° C.

## COc1ccc2c(c1)c(CC(=O)O)c(C)n2C(=O)c1ccc(Cl)cc1 [indomethacin]
  time to 10% indomethacin degradation: 2.7 years
